{"source": "paper PMC5334605", "about": "“Indolediketopiperazine Alkaloids from Eurotium cristatum EN-220, an Endophytic Fungus Isolated from the Marine Alga Sargassum thunbergii” (Marine Drugs, 2017)", "key": {"[1]": {"test": "DPPH radical scavenging assay", "details": "for DPPH radical scavenging activity (IC50): positive control ascorbic acid"}, "[2]": {"tested_on": "brine shrimp (Artemia salina)", "assay_type": "in vivo", "details": "for lethal activity against brine shrimp: result in words; for brine shrimp lethality (LD50): Artemia salina, n.a. = no activity"}, "Panagrellus redivivus": {"tested_on": "Panagrellus redivivus", "test": "Nematicidal assay", "assay_type": "in vivo", "details": "for nematicidal activity against Panagrellus redivivus: result in words; for nematicidal activity (LD50): Panagrellus redivivus, n.a. = no activity"}, "S. aureus": {"tested_on": "S. aureus", "test": "Antimicrobial broth microdilution assay", "assay_type": "cell-based, Staphyloccocus aureus", "details": "Staphylococcus aureus, read-out: MIC against S. aureus"}, "Magnaporthe grisea": {"tested_on": "Magnaporthe grisea", "test": "microbe, parasite or virus in culture", "assay_type": "cell-based", "details": "Pyricularia oryzae, read-out: MIC against Magnaporthe grisea"}}, "data": [{"smiles": "O=C1O[C@H]([C@@H](O)CO)C(O)=C1O", "note": "[Ascorbic Acid, ascorbic acid, reference compound]", "values": [{"measurement": "DPPH radical scavenging activity (IC50)", "setting": "[1]", "result": 2.0, "unit": "µg/mL"}]}, {"smiles": "C=CC(C)(C)c1[nH]c2c(CC=C(C)C)cc(CC=C(C)C)cc2c1C[C@@H]1NC(=O)[C@H](C)NC1=O", "note": "[Compound 11, echinulin]", "values": [{"measurement": "lethal activity against brine shrimp", "setting": "[2]", "result": "did not show any activity"}, {"measurement": "nematicidal activity against Panagrellus redivivus", "setting": "Panagrellus redivivus", "result": "did not show any activity"}, {"measurement": "DPPH radical scavenging activity (IC50)", "setting": "[1]", "result": 13.8, "unit": "µg/mL"}, {"measurement": "MIC", "setting": "S. aureus", "result": 256, "unit": "µg/mL"}]}, {"smiles": "C=CC(C)(C)c1[nH]c2cc(CC=C(C)C)ccc2c1C=c1[nH]c(=O)c(=C)[nH]c1=O", "note": "[Compound 8, neoechinulin C]", "values": [{"measurement": "brine shrimp lethality (LD50)", "setting": "[2]", "result": 70.1, "unit": "µg/mL"}, {"measurement": "nematicidal activity (LD50)", "setting": "Panagrellus redivivus", "result": ">200", "unit": "µg/mL"}, {"measurement": "DPPH radical scavenging activity (IC50)", "setting": "[1]", "result": 12.1, "unit": "µg/mL"}]}, {"smiles": "C=CC(C)(C)c1[nH]c2c(CC=C(C)C)cc(CC=C(C)C)cc2c1C=C1NC(=O)C(C)NC1=O", "note": "(centres unmarked) [Compound 12, dehydroechinulin]", "values": [{"measurement": "lethal activity against brine shrimp", "setting": "[2]", "result": "did not show any activity"}, {"measurement": "nematicidal activity against Panagrellus redivivus", "setting": "Panagrellus redivivus", "result": "did not show any activity"}, {"measurement": "DPPH radical scavenging activity (IC50)", "setting": "[1]", "result": 6.4, "unit": "µg/mL"}, {"measurement": "radical scavenging activity against DPPH radicals", "setting": "[1]; result in words", "result": "potent radical scavenging activity"}, {"measurement": "MIC", "setting": "S. aureus", "result": 256, "unit": "µg/mL"}]}, {"smiles": "C=CC(C)(C)c1[nH]c2ccccc2c1/C=c1\\[nH]c(=O)c(=C)[nH]c1=O", "note": "[Compound 7, neoechinulin B]", "values": [{"measurement": "brine shrimp lethality (LD50)", "setting": "[2]", "result": 105.2, "unit": "µg/mL"}, {"measurement": "lethal activity against brine shrimp", "setting": "[2]", "result": "weaklethal activities"}, {"measurement": "nematicidal activity (LD50)", "setting": "Panagrellus redivivus", "result": ">200", "unit": "µg/mL"}, {"measurement": "DPPH radical scavenging activity (IC50)", "setting": "[1]", "result": 10.9, "unit": "µg/mL"}]}, {"smiles": "C=CC(C)(C)c1[nH]c2c(CC=C(C)CO)cc(CC=C(C)C)cc2c1CC1NC(=O)C(C)NC1=O", "note": "(centres unmarked) [Compound 3, 30-Hydroxyechinulin]", "values": [{"measurement": "brine shrimp lethality (LD50)", "setting": "[2]", "result": 138.1, "unit": "µg/mL"}, {"measurement": "lethal activity against brine shrimp", "setting": "[2]", "result": "weaklethal activities"}]}, {"smiles": "C=CC(C)(C)c1[nH]c2c(CC=C(C)CO)cc(CC=C(C)C)cc2c1CC1NC(=O)C(C)NC1=O", "note": "(centres unmarked) [Compound 4, 29-hydroxyechinulin]", "values": [{"measurement": "brine shrimp lethality (LD50)", "setting": "[2]", "result": 140.6, "unit": "µg/mL"}, {"measurement": "lethal activity against brine shrimp", "setting": "[2]", "result": "weaklethal activities"}]}, {"smiles": "C=CC(C)(C)c1[nH]c2c(CC=C(C)C)cc(CC=C(C)C)cc2c1C[C@@H]1NC(=O)C(=C)NC1=O", "note": "[Compound 10, didehydroechinulin]", "values": [{"measurement": "brine shrimp lethality (LD50)", "setting": "[2]", "result": 27.1, "unit": "µg/mL"}, {"measurement": "lethal activity against brine shrimp", "setting": "[2]", "result": "potent lethal activity"}, {"measurement": "nematicidal activity (LD50)", "setting": "Panagrellus redivivus", "result": 126.4, "unit": "µg/mL"}, {"measurement": "nematicidal activity against Panagrellus redivivus", "setting": "Panagrellus redivivus", "result": "weak nematicidal effect"}, {"measurement": "DPPH radical scavenging activity (IC50)", "setting": "[1]", "result": 13.3, "unit": "µg/mL"}]}, {"smiles": "C=CC(C)(C)c1[nH]c2c(C[C@H](O)C(C)(C)O)cccc2c1/C=C1\\NC(=O)[C@H](C)NC1=O", "note": "[Compound 6, rubrumazine B]", "values": [{"measurement": "DPPH radical scavenging activity (IC50)", "setting": "[1]", "result": 28.5, "unit": "µg/mL"}, {"measurement": "MIC", "setting": "Magnaporthe grisea", "result": 64, "unit": "µg/mL"}]}, {"smiles": "C=CC(C)(C)c1[nH]c2ccccc2c1/C=C1\\NC(=O)C(C)(OC)NC1=O", "note": "(centres unmarked) [Compound 13, variecolorin H]", "values": [{"measurement": "DPPH radical scavenging activity (IC50)", "setting": "[1]", "result": 18.7, "unit": "µg/mL"}, {"measurement": "MIC", "setting": "S. aureus", "result": 256, "unit": "µg/mL"}]}, {"smiles": "C=CC(C)(C)c1[nH]c2cc(CC=C(C)C)ccc2c1/C=C1\\NC(=O)C(C)(OC)NC1=O", "note": "(centres unmarked) [Compound 2, isovariecolorin I]", "values": [{"measurement": "brine shrimp lethality (LD50)", "setting": "[2]", "result": 19.4, "unit": "µg/mL"}, {"measurement": "lethal activity against brine shrimp", "setting": "[2]", "result": "potent lethal activity"}, {"measurement": "nematicidal activity (LD50)", "setting": "Panagrellus redivivus", "result": 110.3, "unit": "µg/mL"}, {"measurement": "nematicidal activity against Panagrellus redivivus", "setting": "Panagrellus redivivus", "result": "weak nematicidal effect"}, {"measurement": "DPPH radical scavenging activity (IC50)", "setting": "[1]", "result": 20.6, "unit": "µg/mL"}]}]}
